{
  "source": "ChEMBL document CHEMBL1127671",
  "about": "“Molecular modeling studies of aldose reductase inhibitors” (J Med Chem, 1994)",
  "target": "Aldo-keto reductase family 1 member B1 (Rattus norvegicus, UniProt P07943)",
  "assay": "Inhibitory activity against purified rat lens aldose reductase (RLAR)",
  "data": [
    {"molecule": "O=C(O)/C=C1\\c2ccccc2-c2ccc(F)cc21", "values": [
      {"measurement": "IC50", "value": 56, "unit": "µM"}
    ]},
    {"molecule": "O=C(O)CC1c2ccccc2-c2ccc(F)cc21", "note": "(stereo not drawn)", "values": [
      {"measurement": "IC50", "value": 0.85, "unit": "µM"}
    ]},
    {"molecule": "c1ccc2c(c1)-c1ccccc1C2Cc1nnn[nH]1", "values": [
      {"measurement": "IC50", "value": 1490, "unit": "µM"}
    ]},
    {"molecule": "c1ccc2c(c1)-c1ccccc1C2c1nnn[nH]1", "values": [
      {"measurement": "IC50", "value": 217, "unit": "µM"}
    ]},
    {"molecule": "O=C(O)Cc1nn(Cc2ccc(Br)cc2F)c(=O)c2ccccc12", "note": "[PONALRESTAT]", "values": [
      {"measurement": "IC50", "value": 0.016, "unit": "µM"}
    ]},
    {"molecule": "O=C(O)CC1c2ccccc2-c2ccccc21", "values": [
      {"measurement": "IC50", "value": 8.9, "unit": "µM"}
    ]},
    {"molecule": "O=C(O)C1c2ccccc2-c2ccccc21", "values": [
      {"measurement": "IC50", "value": 182, "unit": "µM"}
    ]},
    {"molecule": "O=C(O)C=C1c2cc(F)ccc2-c2ccc(F)cc21", "values": [
      {"measurement": "IC50", "value": 16, "unit": "µM"}
    ]},
    {"molecule": "O=C1NC(=O)C2(N1)c1ccccc1-c1ccccc12", "values": [
      {"measurement": "IC50", "value": 3.5, "unit": "µM"}
    ]},
    {"molecule": "O=C(O)CC1c2cc(F)ccc2-c2ccc(F)cc21", "values": [
      {"measurement": "IC50", "value": 0.43, "unit": "µM"}
    ]},
    {"molecule": "CC(C)c1cccc2c1OC(C(C)C)C(=S)N2CC(=O)O", "note": "(stereo not drawn)", "values": [
      {"measurement": "IC50", "value": 0.13, "unit": "µM"}
    ]},
    {"molecule": "O=C(O)C1CC12c1ccccc1-c1ccccc12", "note": "(stereo not drawn)", "values": [
      {"measurement": "IC50", "value": 11.7, "unit": "µM"}
    ]},
    {"molecule": "O=C(O)Cn1c(=O)n(Cc2ccc(Br)cc2F)c(=O)c2ccc(Cl)cc21", "note": "[ZENARESTAT]", "values": [
      {"measurement": "IC50", "value": 0.0044, "unit": "µM"}
    ]}
  ]
}
